{"source": "patent US9481669B2", "about": "“Pladienolide pyridine compounds and methods of use” (Eisai R&D Management Co., Ltd., priority 2014, dated 2016)", "key": {"[1]": {"tested_on": "splicing of Ad2 pre-mRNA in HeLa nuclear extract", "experiment": "In vitro splicing (IVS) biochemical assay", "conditions": "30° C.", "experimental": "Biotin-labeled pre-mRNA of an adenovirus type 2 construct with a deletion of intervening sequence (Ad2) (Berg, M. G., et al. 2012 Mol. Cell Bio., 32(7):1271-83) was prepared by in vitro transcription. The Ad2 construct containing Exon 1 (41 nucleotides), Intron (231 nucleotides), and Exon 2 (72 nucleotides) was generated by gene synthesis and cloned into the EcoRI and XbaI sites of pGEM®-3Z vector (Promega) by Genewiz® (South Plainfield, N.J.). The plasmid was then linearized by XbaI digestion and purified. In vitro transcription and purification of transcribed pre-mRNA were performed using the MEGAscript® T7 transcription kit (Invitrogen™, Life Technologies™, Grand Island, N.Y.) and MEGAclear™ transcription clean-up kit (Invitrogen™, Life Technologies™, Grand Island, N.Y.), respectively, following the manufacturer's instructions. The ratio of biotin-16-UTP (Roche Diagnostics Corporation, Indianapolis, Ind.) to cold UTP was 1:13 to incorporate approximately two biotin molecules per spliced Ad2 mRNA.\nIn vitro splicing assay was performed at 30° C. in 25 μL reaction mixtures containing 95 μg HeLa nuclear extract (Promega Corporation, Madison, Wis.), 47 nM Ad2 pre-mRNA, 25 U RNasin RNase inhibitor (Promega Corporation, Madison, Wis.), 1×SP buffer (0.5 mM ATP, 20 mM creatine phosphate, 1.6 mM MgCl2), and compounds in DMSO (with 1% final concentration of DMSO). After […] of incubation, the reaction was stopped by addition of 18 μL of 5M NaCl, and the mixtures were incubated with 10 μL of M-280 streptavidin-coated magnetic beads (Invitrogen™, Life Technologies™, Grand Island, N.Y.) for 30 min at room temperature to capture Ad2 pre- and spliced mRNA. The beads were washed twice with 100 uL buffer containing 10 mM Tris pH=7.5, 1 mM EDTA and 2M NaCl, and then incubated in RNA gel loading buffer containing 95% formamide at 70° C. for 10 min to elute the RNAs. Ad2 RNAs were resolved by 6% TBE-UREA gel, transferred to a nylon membrane, UV cross-linked, and probed with an IRDye® labeled streptavidin (LI-COR, Lincoln, Nebr.). The amount of spliced RNA was quantified by measuring the band fluorescent intensity using LI-COR Image Studio software.\nThe in vitro splicing (IVS) assay described above is a biochemical assay that monitors inhibition of the splicing of an exemplary pre-mRNA into an mRNA."}, "[2]": {"experiment": "pH stability measurement (UPLC, 0.1 N HCl)", "format": "physicochemical", "conditions": "0.1 N HCl, pH 1, 24 hours", "experimental": "Compounds were provided in 96-well plates and tested in triplicate. Four microliters of a 10 mM stock solution of compound in DMSO were distributed into each of three wells. The plate was stored at or below −20° C. until the day of the analysis. Methanol (HPLC grade) and 0.1 N HCl (EMD catalog HX0603A-6) were used for dilutions. Acetonitrile (HPLC grade), water (Milli-Q filtered), trifluoroacetic acid (spectral grade) and 0.2M phosphate buffer (Wako, catalog no. 163-14471) were used to prepare the mobile phase for the two analyses.\nStability data was obtained using a Waters Acquity UPLC equipped with a UV detector (Waters TUV) and single quadrupole MS detector (Waters SQD). The 96-well plate containing the compound(s) of interest was(were) removed from the freezer and allowed to warm to room temperature for one hour. The UPLC was primed, equilibrated and the system performance was verified by injecting a standard. After 1 hour, each of the three wells was diluted with 266 μL 0.1 N HCl to give pH=1. The plate was covered and placed on a shaker (Eppindorf Thermomixer R) for 45 minutes at 600 rpm. The plate was removed from the shaker, and the contents of each well were filtered through a filtration plate (Millipore catalog no. MSSLBPC50) by vacuum and injected into the UPLC. After approximately 24 hours, the contents of the wells were re-injected into the UPLC.\nStability in the various buffers was measured by comparing the peak area- % of the analyte in methanol versus the peak area- % of the analyte at the same retention time in 0.1 N HCl buffer in the 24 hr time point injection."}, "[3]": {"tested_on": "WiDr cells (colon cancer cells, wildtype SF3B1)", "experiment": "Cell viability assay (CellTiter-Glo, 72 hr), WiDr", "format": "cell-based", "conditions": "Homo sapiens", "experimental": "(§1) Cells (WiDr and Panc05.04 obtained from ATCC) were seeded in 96-well plates, with 2000 cells/100 μL/well, and incubated overnight. Spent media was removed, and fresh media containing 9 different concentrations of compound (100 μL/well) were added, with DMSO concentration from compound stock solution adjusted to be 0.1%. Each compound treatment was done in duplicate or triplicate at each concentration.\n(§2) Another plate with cells seeded was dedicated as a time zero (Tz) plate, to which was added 0.1% DMSO in media (100 μL/well) followed by CellTiter-Glo® reagent (Promega Corporation, Madison, Wis.) (50 μL/well) for ATP measurement as a surrogate of cell viability. Average value from measurement of multiple wells of this plate is used as Tz.\n(§3) Compound-treated plates were incubated for 72 hr at 37° C. Then, CellTiter-Glo® reagent (50 μL/well) was added and ATP was measured. Average value from measurement of the duplicate or triplicate compound-treated wells is used as Ti, and seeded plates with medium having 0.1% DMSO without compound is used as control growth (C).\n(§4) Percentage growth inhibition/Percentage viability was calculated as: [(Ti−Tz)/(C−Tz)]×100 for concentrations for which Ti>/=Tz [(Ti−Tz)/Tz]×100 for concentrations for which Ti<Tz. *time zero (Tz), control growth (C), and test growth in the presence of compound (Ti) Percentage growth inhibition/Percentage viability are plotted versus compound concentration to determine Emax.\n(§5) Growth inhibition of 50% (GI50) was calculated from [(Ti−Tz)/(C−Tz)]×100=50, which is the drug concentration resulting in a 50% reduction in the net increase of ATP in control growth (C) during the compound treatment.\n(§6) The counter-screening of compounds in this viability assay with a “resistant” WiDr-R cell line may indicate whether these compounds have off-target effect(s)."}, "[4]": {"tested_on": "WiDr-R cells (colon cancer cells, SF3B1 R1074H mutation)", "experiment": "Cell viability assay (CellTiter-Glo, 72 hr), WiDr-R counter-screen", "format": "cell-based", "experimental": "as §1, §2, §3, §4, §5, §6"}}, "data": [{"smiles": "C/C(=C\\C=C\\[C@@H](C)c1ccccn1)[C@H]1OC(=O)C[C@H](O)CC[C@@](C)(O)[C@@H](OC(=O)N2CCC(N3CCCCC3)CC2)/C=C/[C@@H]1C", "note": "[Compound 4, (2S,3 S,6S,7R,10R,E)-7,10-dihydroxy-3,7-dimethyl-12-oxo-2-((R,2E,4E)-6-(pyridin-2-yl)hepta-2,4-dien-2-yl)oxacyclododec-4-en-6-yl[1,4′-bipiperidine]-1′-carboxylate]", "values": [{"measurement": "IC50", "setting": "[1]", "value": 0.089, "unit": "µM"}, {"measurement": "% parent remaining (pH = 1, 24 hours)", "setting": "[2]", "value": 99, "unit": "%"}, {"measurement": "GI50", "setting": "[3]", "value": 0.013, "unit": "µM"}, {"measurement": "GI50", "setting": "[4]", "value": "> 1", "unit": "µM"}]}, {"smiles": "C/C(=C\\C=C\\[C@@H](C)c1ccccn1)[C@H]1OC(=O)C[C@H](O)CC[C@@](C)(O)[C@@H](OC(=O)N2CCN(C)CC2)/C=C/[C@@H]1C", "note": "[Compound 2, (2S,3 S,6S,7R,10R,E)-7,10-dihydroxy-3,7-dimethyl-12-oxo-2-((R,2E,4E)-6-(pyridin-2-yl)hepta-2,4-dien-2-yl)oxacyclododec-4-en-6-yl 4-methylpiperazine-1-carboxylate]", "values": [{"measurement": "IC50", "setting": "[1]", "value": 1.33, "unit": "µM"}, {"measurement": "% parent remaining (pH = 1, 24 hours)", "setting": "[2]", "value": 96, "unit": "%"}, {"measurement": "GI50", "setting": "[3]", "value": 0.0318, "unit": "µM"}, {"measurement": "GI50", "setting": "[4]", "value": "> 1", "unit": "µM"}]}, {"smiles": "C/C(=C\\C=C\\[C@@H](C)c1ccccn1)[C@H]1OC(=O)C[C@H](O)CC[C@@](C)(O)[C@@H](OC(=O)N2CCN(C3CCCCCC3)CC2)/C=C/[C@@H]1C", "note": "[Compound 1, (2S,3S,6S,7R,10R,E)-7,10-dihydroxy-3,7-dimethyl-12-oxo-2-((R,2E,4E)-6-(pyridin-2-yl)hepta-2,4-dien-2-yl)oxacyclododec-4-en-6-yl 4-cycloheptylpiperazine-1-carboxylate]", "values": [{"measurement": "IC50", "setting": "[1]", "value": 0.188, "unit": "µM"}, {"measurement": "% parent remaining (pH = 1, 24 hours)", "setting": "[2]", "value": 91, "unit": "%"}, {"measurement": "GI50", "setting": "[3]", "value": 0.0158, "unit": "µM"}, {"measurement": "GI50", "setting": "[4]", "value": "> 1", "unit": "µM"}]}, {"smiles": "C/C(=C\\C=C\\[C@@H](C)c1ccccn1)[C@H]1OC(=O)C[C@H](O)CC[C@@](C)(O)[C@@H](OC(=O)N2CCC(N3CCCCCC3)CC2)/C=C/[C@@H]1C", "note": "[Compound 3, (2S,3S,6S,7R,10R,E)-7,10-dihydroxy-3,7-dimethyl-12-oxo-2-((R,2E,4E)-6-(pyridin-2-yl)hepta-2,4-dien-2-yl)oxacyclododec-4-en-6-yl 4-(azepan-1-yl)piperidine-1-carboxylate]", "values": [{"measurement": "IC50", "setting": "[1]", "value": 0.77, "unit": "µM"}, {"measurement": "% parent remaining (pH = 1, 24 hours)", "setting": "[2]", "value": 98, "unit": "%"}, {"measurement": "GI50", "setting": "[3]", "value": 0.0263, "unit": "µM"}, {"measurement": "GI50", "setting": "[4]", "value": "> 1", "unit": "µM"}]}]}
